Experimental data published in US20260042762A1 (Kymera Therapeutics, Inc., priority 2018, published 2026).
Where a name gives a salt, the structure may show the parent alone.

Target: T1, MerTK (Homo sapiens, UniProt Q12866)
T1 construct: endogenous in cells; host or cells: Jurkat cells
T1 sequence (Q12866 21-999): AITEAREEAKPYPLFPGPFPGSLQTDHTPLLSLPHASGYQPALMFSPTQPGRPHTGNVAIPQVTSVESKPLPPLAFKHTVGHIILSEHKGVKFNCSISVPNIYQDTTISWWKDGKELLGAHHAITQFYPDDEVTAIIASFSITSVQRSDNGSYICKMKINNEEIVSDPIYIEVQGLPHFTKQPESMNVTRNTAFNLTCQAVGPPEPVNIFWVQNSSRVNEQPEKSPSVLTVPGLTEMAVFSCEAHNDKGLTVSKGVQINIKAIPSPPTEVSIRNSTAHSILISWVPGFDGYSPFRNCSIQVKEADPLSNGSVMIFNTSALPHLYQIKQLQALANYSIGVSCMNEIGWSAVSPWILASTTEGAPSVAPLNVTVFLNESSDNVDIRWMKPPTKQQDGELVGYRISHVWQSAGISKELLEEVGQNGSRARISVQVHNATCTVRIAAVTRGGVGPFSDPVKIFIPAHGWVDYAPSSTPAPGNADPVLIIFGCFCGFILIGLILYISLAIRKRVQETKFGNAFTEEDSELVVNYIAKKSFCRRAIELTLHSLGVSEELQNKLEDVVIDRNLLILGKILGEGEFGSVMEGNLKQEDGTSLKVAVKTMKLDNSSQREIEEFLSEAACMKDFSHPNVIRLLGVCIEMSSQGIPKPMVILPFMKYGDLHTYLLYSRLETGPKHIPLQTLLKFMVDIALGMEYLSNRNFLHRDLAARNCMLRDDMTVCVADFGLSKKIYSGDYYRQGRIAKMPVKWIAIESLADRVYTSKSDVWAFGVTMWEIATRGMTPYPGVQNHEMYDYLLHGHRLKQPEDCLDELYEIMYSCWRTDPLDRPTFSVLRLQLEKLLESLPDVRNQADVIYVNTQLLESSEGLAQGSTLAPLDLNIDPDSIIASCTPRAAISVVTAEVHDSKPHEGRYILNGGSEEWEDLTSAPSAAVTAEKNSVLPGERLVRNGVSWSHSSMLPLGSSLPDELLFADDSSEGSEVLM
Assay: MerTk degradation in Jurkat cells (Western blot)
Assay type: cell-based
Details: Jurkat, 4 h, 0.001-1 μM, 4 hour-incubation at 37° C., read-out: Jurkat Max % MerTK Degradation
Protocol: Compounds were reconstituted in DMSO to make 10 mM stock solutions. […] Cells were seeded into 6-well plates with about 5×10^6 cells per well. 2 μL of diluted compounds were added to cells to the final concentration of 0.001-1 μM. After a 4 hour-incubation at 37° C., cells were collected into 2 mL Eppendorf tubes and centrifuged at 1,000 rpm for 5 min. The cell pellets were washed with DPBS (1×) once and resuspended in 60 μL RIPA lysis buffer with Halt Protease and Phophatase Inhibitor Cocktail. The cells were lysed on ice for 10 min, then centrifuged at 14,000 rpm for 10 min at 4° C. and the supernatants were collected for western blots.
The protein concentration of cell lysates was quantified with Pierce™ BCA Protein Assay Kit. […] BCA working reagents were prepared by mixing BCA reagent A with reagent B in 50: 1 ratio. 200 μL of the BCA working reagents were added to 25 μL of BCA standard or cell lysates in microplate, and mixed thoroughly on a plate shaker for 30 seconds. After incubation at 37° C. for 30 min, the absorbance of samples at 562 nm were measured with EnVision Plate Reader.
Protein lysates were prepared in NuPAGE™ LDS sample buffer and NuPAGE™ sample reducing agent, and incubated at 95° C. for 5 min. […] The proteins were transferred to low fluorescence PVDF membranes using the Trans-Blot Turbo Transfer System. Membranes were then blocked in Odyssey blocking buffer at RT for 1 h followed by primary incubation at 4° C. overnight. The primary antibodies were MerTK rabbit monoclonal antibody and actin mouse monoclonal antibody. Membranes were washed three times with TBST (1×), and then incubated with IR Dye 800 CW Goat anti-rabbit and IR Dye 700 CW Goat anti-mouse secondary antibodies in 1:10,000 dilution at RT for 1 h. The Western blot images were obtained using Odyssey Imaging System.

SMILES | Dmax [%]
CCCCNc1ncc2c(-c3ccc(CN4CCN(CCOCCOCCOCCOCCCc5ccc6c(c5)n(C)c(=O)n6[C@H]5CCC(=O)NC5=O)CC4)cc3F)cn([C@H]3CC[C@H](O)CC3)c2n1 [I-58, 3-(5-[1-[4-([4-[2-(butylamino)-7-[trans-4-hydroxycyclohexy1]-7H-pyrrolo[2,3-d]pyrimidin-5-y1]-3-fluorophenyl]methyl)piperazin-1-y1]-3,6,9,12-tetraoxapentadecan-15-y1]-3-methyl-2-oxo-2,3-dihydro-1H-1,3-benzodiazol-1-yl)piperidine-2,6-dione] | > 50
Cn1c(=O)n([C@H]2CCC(=O)NC2=O)c2ccc(CCCOCCOCCOCCNCc3ccc(-c4cn([C@H]5CC[C@H](O)CC5)c5nc(NCCC(F)(F)F)ncc45)cc3)cc21 [I-47, 3-[3-methyl-2-oxo-5-[1-(4-[7-[trans-4-hydroxycyclohexy1]-2-[(3,3,3-trifluoropropyl)amino]-7H-pyrrolo[2,3-d]pyrimidin-5-yl]phenyl)-5,8,11-trioxa-2-azatetradecan-14-y1]-2,3-dihydro-1H-1,3-benzodiazol-1-yl]piperidine-2,6-dione] | > 50
Cn1c(=O)n(C2CCC(=O)NC2=O)c2ccc(CCCCN3CCC(N4CCN(Cc5ccc(-c6cn([C@H]7CC[C@H](O)CC7)c7nc(NCCC(F)(F)F)ncc67)cc5)CC4)C3)cc21 (stereo partly drawn) [I-123, 3-[3-methyl-2-oxo-5-[4-(3-[4-[(4-[7-[trans-4-hydroxycyclohexyl]-2-[(3,3,3-trifluoropropyl)amino]-7H-pyrrolo[2,3-d]pyrimidin-5-yl]phenyl)methyl]piperazin-1-yl]pyrrolidin-1-yl)butyl]-2,3-dihydro-1H-1,3-benzodiazol-1-yl]piperidine-2,6-dione; formic acid] | > 50
Cn1c(=O)n(C2CCC(=O)NC2=O)c2ccc(C#CCOCCN3CCCC(N4CCN(Cc5ccc(-c6cn([C@H]7CC[C@H](O)CC7)c7nc(NCCC(F)(F)F)ncc67)cc5)CC4)C3)cc21 (stereo partly drawn) [I-87, 3-(3-methyl-2-oxo-5-[3-[2-(3-[4-[(4-[7-[trans-4-hydroxycyclohexyl]-2-[(3,3,3-trifluoropropyl)amino]-7H-pyrrolo[2,3-d]pyrimidin-5-yl]phenyl)methyl]piperazin-1-yl]piperidin-1-yl)ethoxy]prop-1-yn-1-y1]-2,3-dihydro-1H-1,3-benzodiazol-1-y1)piperidine-2,6-dione; formic acid] | > 50
Cn1c(=O)n(C2CCC(=O)NC2=O)c2ccc(CCOCCN3CCCC(N4CCN(Cc5ccc(-c6cn([C@H]7CC[C@H](O)CC7)c7nc(NCCC(F)(F)F)ncc67)cc5)CC4)C3)cc21 (stereo partly drawn) [I-131, 3-(3-methyl-2-oxo-5-[2-[2-(3-[4-[(4-[7-[trans-4-hydroxycyclohexyl]-2-[(3,3,3-trifluoropropyl)amino]-7H-pyrrolo[2,3-d]pyrimidin-5-yl]phenyl)methyl]piperazin-1-y1]piperidin-1-yl)ethoxy]ethyl]-2,3-dihydro-1H-1,3-benzodiazol-1-y1)piperidine-2,6-dione; formic acid] | > 50
Cn1c(=O)n([C@H]2CCC(=O)NC2=O)c2ccc(CCCOCCCN3CCN(Cc4ccc(-c5cn([C@H]6CC[C@H](O)CC6)c6nc(NC7CC7)ncc56)cc4)CC3)cc21 [I-108, 3-[5-(3-[3-[4-([4-[2-(cyclopropylamino)-7-[trans-4-hydroxycyclohexyl]-7H-pyrrolo[2,3-d]pyrimidin-5-yl]phenyl]methyl)piperazin-1-yl]propoxy]propyl)-3-methyl-2-oxo-2,3-dihydro-1H-1,3-benzodiazol-1-yl]piperidine-2,6-dione; bis(formic acid)] | > 50
Cc1cc(CNCc2ccc(C(=O)N3CCC(C4CCN(Cc5ccc(-c6cn([C@H]7CC[C@H](O)CC7)c7nc(NCCC(F)(F)F)ncc67)cc5)CC4)CC3)cc2)ccc1-c1ccc2nn(CC3CC3)cc2c1 [I-180, trans-4-[5-(4-[[1-(4-[[([4-[2-(Cyclopropylmethyl)indazol-5-yl]-3-methylphenyl]methyl)amino]methyl]benzoyl)-[4,4-bipiperidin]-1-yl]methyl]phenyl)-2-[(3,3,3-trifluoropropyl)amino]pyrrolo[2,3-d]pyrimidin-7-yl]cyclohexan-1-ol hydrochloride] | < 20
Cn1c(=O)n([C@H]2CCC(=O)NC2=O)c2ccc(CCN3CC(OCCN4CCN(Cc5ccc(-c6cn([C@H]7CC[C@H](O)CC7)c7nc(NCCC(F)(F)F)ncc67)cc5)CC4)C3)cc21 [I-128, 3-(3-methyl-2-oxo-5-[2-[3-(2-[4-[(4-[7-[trans-4-hydroxycyclohexyl]-2-[(3,3,3-trifluoropropyl)amino]pyrrolo[2,3-d]pyrimidin-5-yl]phenyl)methyl]piperazin-1-yl]ethoxy)azetidin-1-yl]ethyl]-1,3-benzodiazol-1-y1)piperidine-2,6-dione] | 20 to 50
Cn1c(=O)n([C@H]2CCC(=O)NC2=O)c2ccc(CCCOCCOCCN3CCN(C[C@H]4CC[C@@H](c5cn([C@H]6CC[C@H](O)CC6)c6nc(NCCC(F)(F)F)ncc65)CC4)CC3)cc21 [I-153, 3-[3-methyl-2-oxo-5-(3-[2-[2-(4-[[(1s,4s)-4-[7-[trans-4-hydroxycyclohexyl]-2-[(3,3,3-trifluoropropyl)amino]pyrrolo[2,3-d]pyrimidin-5-yl]cyclohexyl]methyl]piperazin-1-yl)ethoxy]ethoxy]propyl)-1,3-benzodiazol-1-yl]piperidine-2,6-dione] | > 50
C[C@@H](CC(F)(F)F)Nc1ncc2c(-c3ccc(CN4CCN(C5CC(OCCc6ccc7c(c6)n(C)c(=O)n7C6CCC(=O)NC6=O)C5)CC4)cc3)cn([C@H]3CC[C@H](O)CC3)c2n1 (stereo partly drawn) [I-195, 3-[3-methyl-2-oxo-5-[2-(3-[4-[(4-[7-[trans-4-hydroxycyclohexy1]-2-[[(2S)-4,4,4-trifluorobutan-2-yl]amino]pyrrolo[2,3-d]pyrimidin-5-yl]phenyl)methyl]piperazin-1-yl]cyclobutoxy)ethyl]-1,3-benzodiazol-1-yl]piperidine-2,6-dione] | 20 to 50
CN(C)c1cccc2c(S(=O)(=O)Nc3cccc(-c4cnc(NCCOCCOCCN5CCN(Cc6ccc(-c7cn([C@H]8CC[C@H](O)CC8)c8nc(NCCC(F)(F)F)ncc78)cc6)CC5)nc4N4CCC(c5ccccc5)C4C(=O)O)c3)cccc12 (stereo partly drawn) [I-168, 1-(5-[3-[5-(Dimethylamino)naphthalene-1-sulfonamido]phenyl]-2-([2-[2-(2-[4-[(4-[7-[trans-4-hydroxycyclohexyl]-2-[(3,3,3-trifluoropropyl)amino]pyrrolo[2,3-d]pyrimidin-5-yl]phenyl)methyl]piperazin-1-yl]ethoxy)ethoxy]ethyl]amino)pyrimidin-4-yl)-3-phenylpyrrolidine-2-carboxylic acid] | < 20
CCCCNc1ncc2c(-c3ccc(CN4CCN(CCOCCCc5ccc6c(c5)n(C)c(=O)n6[C@H]5CCC(=O)NC5=O)CC4)cc3)cn([C@H]3CC[C@H](O)CC3)c2n1 [I-43, 3-[5-(3-[2-[4-([4-[2-(butylamino)-7-[trans-4-hydroxycyclohexy1]-7H-pyrrolo[2,3-d]pyrimidin-5-yl]phenyl]methyl)piperazin-1-y1]ethoxy]propyl)-3-methyl-2-oxo-2,3-dihydro-1H-1,3-benzodiazol-1-yl]piperidine-2,6-dione; formic acid] | > 50
